{"source": "patent US9273276B2", "about": "“Devices and methods for pharmacokinetic-based cell culture system” (priority 2001, dated 2016)", "key": {"[1]": {"tested_on": "HCT-116 human colon cancer cells", "details": "for cell death of HCT-116 cells on chip without liver compartment cells: chips seeded with HCT-116 cells only, no cells in liver compartment, 24 hours", "method": "FIG. 16 Tegafur dose response. […] The chips were treated with indicated concentrations of tegafur for 24 hours. The first graph (FIG. 16A) is a plot of percentage dead cells vs. tegafur or 5-FU concentration after 24 hours of re-circulation on the chip. The second graph (FIG. 16B) is a similar dose response using a traditional in vitro cell culture assay with HCT 116 cells using a 48 hour exposure. HCT-116 cells were seeded on poly-lysine treated glass coverslips and exposed to either tegafur or 5-FU at the indicated concentrations. After a 48 hr incubation, coverslips were treated as described above and the percentage of cell death was determined.\n(§1) LIVE/DEAD stain is a two-component stain consisting of calcein AM and ethidium homodimer. Living cells actively hydrolyze the acetoxymethyl ester (AM) moiety of calcein AM to produce bright green fluorescence of calcein. In contrast, cells that have compromised membrane integrity allow the normally membrane impermeant ethidium homodimer to stain the nucleus of dead or dying cells fluorescent red. The cell permeant nuclear stain, Hoechst 33342 acts as a general stain for all cells. Together with the appropriate filter sets, living cells fluoresce green, dying or dead cells red, and all cells are quantified by a blue nuclear fluorescence. For experiments described herein, trypan blue was used at 0.2% (w/v), calcein AM at 1:20,000, propidium iodide at 1:5,000, and Hoechst 33342 at 10 μg/ml. Cells were visualized with a M2Bio stereofluorescence microscope (Zeiss). All experiments were repeated at least three times and measurements done in triplicate.\n[…] Tegafur was added to the re-circulating medium at various concentrations for 24 hours and the cells labeled with Hoechst 33342, a membrane permeable DNA dye, and ethidium homodimer, a membrane impermeable DNA dye (see Methods Section)."}, "HCT-116 cells": {"tested_on": "HCT-116 cells", "experiment": "Traditional in vitro cell culture assay, HCT-116 cells on poly-lysine treated glass coverslips", "type": "cell-based, human", "details": "for cell death of HCT-116 cells, traditional cell culture assay: coverslips, no liver cells, 48 hr exposure", "method": "FIG. 16 Tegafur dose response. Chips were seeded with HepG2-C3A cells in the liver compartment and HCT-116 colon cancer cells in the target tissues compartment. The chips were treated with indicated concentrations of tegafur for 24 hours. The first graph (FIG. 16A) is a plot of percentage dead cells vs. tegafur or 5-FU concentration after 24 hours of re-circulation on the chip. The second graph (FIG. 16B) is a similar dose response using a traditional in vitro cell culture assay with HCT 116 cells using a 48 hour exposure. HCT-116 cells were seeded on poly-lysine treated glass coverslips and exposed to either tegafur or 5-FU at the indicated concentrations. After a 48 hr incubation, coverslips were treated as described above and the percentage of cell death was determined.\nTo measure the cytotoxic effects of tegafur against colon cancer cells, the microscale chip was prepared with HepG2-C3A cells in the liver compartment and HCT-116 human colon cancer cells in the target tissue compartment. Tegafur was added to the re-circulating medium at various concentrations for 24 hours and the cells labeled with Hoechst 33342, a membrane permeable DNA dye, and ethidium homodimer, a membrane impermeable DNA dye (see Methods Section)."}, "[2]": {"tested_on": "HT29 human colon cancer cells", "experiment": "Microscale chip, HepG2-C3A cells in liver compartment and HT29 cells in target tissue compartment, LIVE/DEAD staining", "type": "cell-based", "details": "24 hours; for efficacy against HT-29 colon cancer cells on chip: HepG2-C3A cells in liver compartment, HT-29 cells with mutant p53", "excerpt": "as §1"}, "HepG2/C3A cells [3]": {"tested_on": "HepG2/C3A cells", "experiment": "LIVE/DEAD assay, HepG2/C3A cells on poly-D-lysine treated glass coverslips", "type": "cell-based, human", "details": "1 μM, 24 hours", "excerpt": "as §1\nThe LIVE/DEAD assay was optimized (see Methods section) using cells grown on glass coverslips. Briefly, HepG2/C3A cells were seeded onto poly-D-lysine treated glass coverslips and treated with and without 1 μM staurosporine for 24 hours. […]"}, "HCT116 cells [4]": {"tested_on": "HCT116 cells", "experiment": "LIVE/DEAD cytotoxicity assay on the microscale chip system (HepG2/C3A liver, HCT116 target tissues)", "type": "cell-based, human", "details": "1 μM, 24 hour treatment, compared to untreated control cell chips", "excerpt": "as §1\n(§2) Two different assays to detect apoptosis were investigated. The first assay was the immunofluorescence-based terminal deoxynucleotidyl transferase BrdU nick end labeling (TUNEL) technique available in kit form as APOPTAG™ (Intergen Co., MA) (see Methods section)."}, "HepG2/C3A cells [5]": {"tested_on": "HepG2/C3A cells", "experiment": "APOPTAG (TUNEL) apoptosis assay, HepG2/C3A cells on glass coverslips", "type": "cell-based, human", "details": "1 μM, 24-hour incubation, compared to untreated controls", "excerpt": "(§3) In contrast to annexin V labeling, the APOPTAG™ kit (Intergen Co., MA) uses terminal deoxynucleotidyl transferase to label free 3′-OH DNA termini exposed during apoptotic DNA degradation and visualization using immunofluorescence (Li, X., Traganos, F., Melamed, M. R., and Darzynkiewicz, Z. (1995). Single-step procedure for labeling DNA strand breaks with flourescein- or BODIPY-conjugated deoxynucleotides: detection of apoptosis and bromodeoxyuridine incorporation. Cytometry 20, 172-180). Although this method is highly specific for apoptosis, the procedure cannot be done on-chip due to the fixation and incubation steps. Briefly, microscale chips were run under specified experimental conditions, the cell chips were removed from their housing units, fixed in 1% paraformaldehyde and processed with the APOPTAG™ kit using the manufacturer's protocol.\nas §2, with “section). The assay was first optimized using cells grown on glass coverslips. Briefly, HepG2/C3A cells were seeded onto poly-D-lysine treated glass coverslips and treated with and without staurosporine. Coverslips were processed as described (see Methods section).” for “section).”"}, "HCT116 cells [6]": {"tested_on": "HCT116 cells", "experiment": "APOPTAG (TUNEL) apoptosis assay on microscale chip (HepG2/C3A liver, HCT116 target tissues)", "type": "cell-based, human", "details": "1 μM, 24 hour exposure, compared to untreated controls", "excerpt": "as §3\nas §2, with “section). The assay was first optimized using cells grown on glass coverslips. Briefly, HepG2/C3A cells were seeded onto poly-D-lysine treated glass coverslips and treated with and without staurosporine. Coverslips were processed as described (see Methods section).” for “section).”"}, "[7]": {"tested_on": "HepG2/C3A cells in the liver compartment and HCT116 cells in the target tissues compartment", "experiment": "Annexin V-FITC apoptosis assay on microscale chip system", "type": "cell-based, human", "details": "1 μM, 6-hour treatment, compared to untreated control cell chips", "experimental": "With the microscale chip, annexin V-FITC labeling was visualized directly on-chip, by first flushing the system with PBS, then recirculating annexin V-FITC (10 μg/ml in annexin V binding buffer, Clontech) for 30 min. Cells were then visualized directly using a FITC filter set.\nBriefly, the microscale chip cell chips were seeded with HepG2/C3A cells in the liver compartment and HCT116 cells in the target tissues compartment. Cell chips were loaded onto the microscale chip system and treated with and without 1 μM staurosporine as described above. After a 6-hour incubation, the re-circulating medium was switched to PBS containing Annexin V-FITC and Hoechst 33342 and allowed to flow through the system for 30 minutes. Cell chips were removed from the acrylic housing and visualized under a fluorescent microscope. Cells were visualized under a fluorescent microscope and fluorescent images of identical fields were obtained using the appropriate filter sets."}}, "note": "Entries after “also recorded” stand apart in the source; their conditions may differ."}
{"smiles": "O=c1[nH]cc(F)c(=O)[nH]1", "note": "[5-FU, 5-fluorouracil]", "values": [{"measurement": "cell death of HCT-116 cells on chip without liver compartment cells", "setting": "[1]", "value": "caused substantial cell death"}, {"measurement": "exposure before cytotoxicity was observed, traditional cell culture assay", "setting": "HCT-116 cells; HCT-116 cells on coverslips", "value": "≥ 48", "unit": "h"}, {"measurement": "cell death of HCT-116 cells, traditional cell culture assay", "setting": "HCT-116 cells", "value": "triggered cell death"}]}
{"smiles": "O=c1[nH]c(=O)n(C2CCCO2)cc1F", "note": "(centres unmarked) [Tegafur, 5-fluoro-1-(2-tetrahydrofuryl)-2,4(1H,3H)-pyrimidi-nedione]", "values": [{"measurement": "efficacy against HT-29 colon cancer cells on chip", "setting": "[2]", "value": "ineffective"}, {"measurement": "cytotoxicity to HCT-116 cells on chip", "setting": "[1]", "value": "cytotoxic to HCT-1-16-cells in a dose dependent fashion"}, {"measurement": "cell death of HCT-116 cells on chip without liver compartment cells", "setting": "[1]", "value": "did not cause significant cell death"}, {"measurement": "cell death of HCT-116 cells, traditional cell culture assay", "setting": "HCT-116 cells", "value": "ineffective"}]}
{"smiles": "CN[C@@H]1C[C@H]2O[C@@](C)([C@@H]1OC)n1c3ccccc3c3c4c(c5c6ccccc6n2c5c31)C(=O)NC4", "note": "[Staurosporine]", "values": [{"measurement": "cell death of HepG2/C3A cells (LIVE/DEAD)", "setting": "HepG2/C3A cells [3]", "value": "clearly cause cell death"}, {"measurement": "cell death of HCT116 cells on chip (LIVE/DEAD)", "setting": "HCT116 cells [4]", "value": "Significant cell death; also recorded: significant apoptosis (or cytotoxicity)"}, {"measurement": "apoptosis of HepG2/C3A cells (APOPTAG)", "setting": "HepG2/C3A cells [5]", "value": "caused significant apoptosis"}, {"measurement": "apoptosis of HCT116 cells on chip (APOPTAG)", "setting": "HCT116 cells [6]", "value": "significant apoptosis (or cytotoxicity)"}, {"measurement": "apoptosis on chip (annexin V-FITC)", "setting": "[7]", "value": "caused significant apoptosis"}]}
{"smiles": "CC1=C(CC(=O)O)c2cc(F)ccc2/C1=C\\c1ccc([S+](C)[O-])cc1", "note": "(centres unmarked) [Sulindac, sulindac sulfoxide]", "values": [{"measurement": "efficacy against HT-29 colon cancer cells on chip", "setting": "[2]", "value": "effective"}, {"measurement": "cell death of HT29 cells in target tissue compartment", "setting": "[2]; One hundred micromoles, in the absence of the HepG2-C3A liver cells", "value": "minimal levels of cell death"}]}
